Data on 25 molecules can be found in patent US20260085077A1, “HETEROCYCLIC DERIVATIVES AS JANUS KINASE INHIBITORS” (CHIESI FARMACEUTICI S.P.A., priority 2022, published 2026).

For the assay, the system named is IL-13 induced pSTAT6 in BEAS-2B human cell line. In words: Inhibition of IL-13 induced pSTAT6 in BEAS. Particulars: IL-13 induced pSTAT6, BEAS-2B cells, ELISA. The class given is cell-based. The protocol:
BEAS-2B human cell line was seeded (100.000 cells/well) and incubated for 48 h at 37° C., 5% CO2, 95% humidity. Compounds were added and incubated 30 min followed by IL-13 as trigger. After 30 min incubation, cells were lysed and pSTAT6 determined by Fastscan phospho-stat6 (Tyr641) sandwich ELISA kit (cell signaling). Inhibitors were tested at 11 consecutive […] dilutions starting from 10 μM (10 μM-40 pM) in duplicate. Calculation of IC50 data, curves and QC analysis were made using Excel tools and GraphPadPrism software. QC criteria parameters: Z′≥0.35, Hill Slope range 0.5 to 5, S:B>2.
In the case of `COc1cc2c(cc1-n1nc(NC(=O)OCCNC3CCOC3=O)c3cnc(-c4cnn5cccnc45)cc31)OCCN2` (stereo not shown) [Example 68, 2-((2-oxotetrahydrofuran-3-yl)amino)ethyl (1-(6-methoxy-3,4-dihydro-2H-benzo[b][1,4]oxazin-7-yl)-6-(pyrazolo[1,5-a]pyrimidin-3-yl)-1H-pyrazolo[4,3-c]pyridin-3-yl)carbamate], the half-inhibitory concentration (IC50) is 5.01 to 50.1 nM. `COc1cc2c(cc1-n1nc(C)c3cnc(-c4cnn5cccnc45)cc31)C(=O)CCN2` [Example 5, 7-methoxy-6-(3-methyl-6-(pyrazolo[1,5-a]pyrimidin-3-yl)-1H-pyrazolo[4,3-c]pyridin-1-yl)-2,3-dihydroquinolin-4(1H)-one] showed an IC50 of 5.01 to 50.1 nM. The molecule `COc1cc2c(cc1-n1nc(C(=O)NCCN3CC[C@@H](C(N)=O)C3)c3cnc(-c4cnn5cccnc45)cc31)OCCN2` [Example 80, (R)-N-(2-(3-carbamoylpyrrolidin-1-yl)ethyl)-1-(6-methoxy-3,4-dihydro-2H-benzo[b][1,4]oxazin-7-yl)-6-(pyrazolo[1,5-a]pyrimidin-3-yl)-1H-pyrazolo[4,3-c]pyridine-3-carboxamide] had an IC50 of 50.1 to 501 nM. Under `COc1cc2sncc2cc1-n1nc(NCCN2CCOCC2)c2cnc(-c3cnn4cccnc34)cc21` [Example 39, 1-(6-methoxybenzo[d]isothiazol-5-yl)-N-(2-morpholinoethyl)-6-(pyrazolo[1,5-a]pyrimidin-3-yl)-1H-pyrazolo[4,3-c]pyridin-3-amine] stands 5.01 to 50.1 nM; under `COc1cc2c(cc1-n1nc(C(=O)NCCN3CC(=O)OC(C)C3)c3cnc(-c4cnn5cccnc45)cc31)OCCN2` (stereo not shown) [Example 83, 1-(6-methoxy-3,4-dihydro-2H-benzo[b][1,4]oxazin-7-yl)-N-(2-(2-methyl-6-oxomorpholino)ethyl)-6-(pyrazolo[1,5-a]pyrimidin-3-yl)-1H-pyrazolo[4,3-c]pyridine-3-carboxamide], 50.1 to 501 nM. Under `COc1cc2c(cc1-n1nc(C(=O)NCCN3C[C@H]4COC(=O)[C@H]4C3)c3cnc(-c4cnn5cccnc45)cc31)OCCN2` [Example 50, 1-(6-methoxy-3,4-dihydro-2H-benzo[b][1,4]oxazin-7-yl)-N-(2-((3aS,6aR)-1-oxotetrahydro-1H-furo[3,4-c]pyrrol-5(3H)-yl)ethyl)-6-(pyrazolo[1,5-a]pyrimidin-3-yl)-1H-pyrazolo[4,3-c]pyridine-3-carboxamide] stands 5.01 to 50.1 nM; under `COc1cc2c(cc1-n1nc(NC(=O)OCCN3CCOCC3)c3cnc(-c4cnn5cccnc45)cc31)SCCN2` [Example 29, 2-morpholinoethyl (1-(6-methoxy-3,4-dihydro-2H-benzo[b][1,4]thiazin-7-yl)-6-(pyrazolo[1,5-a]pyrimidin-3-yl)-1H-pyrazolo[4,3-c]pyridin-3-yl)carbamate], below 5.01 nM.

On to `COc1cc2c(cc1-n1nc(NC(=O)O[C@H]3CCN(C)C3)c3cnc(-c4cnn5cccnc45)cc31)SCCN2` [Example 33, (S)-1-methylpyrrolidin-3-yl (1-(6-methoxy-3,4-dihydro-2H-benzo[b][1,4]thiazin-7-yl)-6-(pyrazolo[1,5-a]pyrimidin-3-yl)-1H-pyrazolo[4,3-c]pyridin-3-yl)carbamate], for which the half-maximal inhibitory concentration (IC50) was 5.01 to 50.1 nM. Under `COc1cc2c(cc1-n1nc(C)c3cnc(-c4cnn5cccnc45)cc31)CN(S(C)(=O)=O)C2` [Example 2, 1-(6-methoxy-2-(methylsulfonyl)isoindolin-5-yl)-3-methyl-6-(pyrazolo[1,5-a]pyrimidin-3-yl)-1H-pyrazolo[4,3-c]pyridine] stands 5.01 to 50.1 nM. `COc1cc2c(cc1-n1nc(C(=O)NCCN3CCC4(CCC(=O)O4)CC3)c3cnc(-c4cnn5cccnc45)cc31)OCCN2` [Example 15, 1-(6-methoxy-3,4-dihydro-2H-benzo[b][1,4]oxazin-7-yl)-N-(2-(2-oxo-1-oxa-8-azaspiro[4.5]decan-8-yl)ethyl)-6-(pyrazolo[1,5-a]pyrimidin-3-yl)-1H-pyrazolo[4,3-c]pyridine-3-carboxamide]: the half-inhibitory concentration (IC50) is below 5.01 nM.

On to `COc1cc2c(cc1-n1nc(NC(=O)OCCSC3CCOC3=O)c3cnc(-c4cnn5cccnc45)cc31)CCCN2` (stereo not shown) [Example 86, 2-((2-oxotetrahydrofuran-3-yl)thio)ethyl (1-(7-methoxy-1,2,3,4-tetrahydroquinolin-6-yl)-6-(pyrazolo[1,5-a]pyrimidin-3-yl)-1H-pyrazolo[4,3-c]pyridin-3-yl)carbamate], for which the IC50 was 5.01 to 50.1 nM. Consider `COc1cc2c(cc1-n1nc(C)c3cnc(-c4cnn5cccnc45)cc31)CCC(=O)N2` [Example 4, 7-methoxy-6-(3-methyl-6-(pyrazolo[1,5-a]pyrimidin-3-yl)-1H-pyrazolo[4,3-c]pyridin-1-yl)-3,4-dihydroquinolin-2(1H)-one], for which the IC50 was 5.01 to 50.1 nM. Take `COc1cc2c(cc1-n1nc(C(=O)NCCCN(C)C)c3cnc(-c4cnn5cccnc45)cc31)SCC(=O)N2` [Example 23, N-(3-(dimethylamino)propyl)-1-(6-methoxy-3-oxo-3,4-dihydro-2H-benzo[b][1,4]thiazin-7-yl)-6-(pyrazolo[1,5-a]pyrimidin-3-yl)-1H-pyrazolo[4,3-c]pyridine-3-carboxamide]: the IC50 was 5.01 to 50.1 nM. Under `COc1cc2c(cc1-n1nc(NC(=O)OCC3(N(C)C)CCOCC3)c3cnc(-c4cnn5cccnc45)cc31)SCCN2` [Example 34, (4-(dimethylamino)tetrahydro-2H-pyran-4-yl)methyl (1-(6-methoxy-3,4-dihydro-2H-benzo[b][1,4]thiazin-7-yl)-6-(pyrazolo[1,5-a]pyrimidin-3-yl)-1H-pyrazolo[4,3-c]pyridin-3-yl)carbamate] stands 5.01 to 50.1 nM. Under `COc1cc2c(cc1-n1nc(C(=O)NC3CN(C)C3)c3cnc(-c4cnn5cccnc45)cc31)OCCN2` [Example 44, 1-(6-methoxy-3,4-dihydro-2H-benzo[b][1,4]oxazin-7-yl)-N-(1-methylazetidin-3-yl)-6-(pyrazolo[1,5-a]pyrimidin-3-yl)-1H-pyrazolo[4,3-c]pyridine-3-carboxamide] stands 5.01 to 50.1 nM.

In turn, `COc1cc2c(cc1-n1nc(C(=O)NCCN3CCC4(COC4)C3)c3cnc(-c4cnn5cccnc45)cc31)OCCN2` [Example 82, N-(2-(2-oxa-6-azaspiro[3.4]octan-6-yl)ethyl)-1-(6-methoxy-3,4-dihydro-2H-benzo[b][1,4]oxazin-7-yl)-6-(pyrazolo[1,5-a]pyrimidin-3-yl)-1H-pyrazolo[4,3-c]pyridine-3-carboxamide] gave an IC50 of 5.01 to 50.1 nM. Consider `COc1cc2c(cc1-n1nc(C(=O)NCCN3CCC(C(=O)N(C)C)CC3)c3cnc(-c4cnn5cccnc45)cc31)OCCN2` [Example 53, N-(2-(4-(dimethylcarbamoyl)piperidin-1-yl)ethyl)-1-(6-methoxy-3,4-dihydro-2H-benzo[b][1,4]oxazin-7-yl)-6-(pyrazolo[1,5-a]pyrimidin-3-yl)-1H-pyrazolo[4,3-c]pyridine-3-carboxamide], for which the IC50 was 5.01 to 50.1 nM. Under `COc1cc2c(cc1-n1nc(C)c3cnc(-c4cnn5cccnc45)cc31)C1(CC1)C(=O)N2` [Example 71, 6′-methoxy-5′-(3-methyl-6-(pyrazolo[1,5-a]pyrimidin-3-yl)-1H-pyrazolo[4,3-c]pyridin-1-yl)spiro[cyclopropane-1,3′-indolin]-2′-one] stands 5.01 to 50.1 nM; under `COc1cc2c(cc1-n1nc(C(=O)NCCCN(C)C)c3cnc(-c4cnn5cccnc45)cc31)OCCN2` [Example 43, N-(3-(dimethylamino)propyl)-1-(6-methoxy-3,4-dihydro-2H-benzo[b][1,4]oxazin-7-yl)-6-(pyrazolo[1,5-a]pyrimidin-3-yl)-1H-pyrazolo[4,3-c]pyridine-3-carboxamide], 5.01 to 50.1 nM; under `COc1cc2c(cc1-n1nc(C)c3cnc(-c4cnn5cccnc45)cc31)SCCN2` [Example 6, 6-methoxy-7-(3-methyl-6-(pyrazolo[1,5-a]pyrimidin-3-yl)-1H-pyrazolo[4,3-c]pyridin-1-yl)-3,4-dihydro-2H-benzo[b][1,4]thiazine], below 5.01 nM. `COc1cc2c(cc1-n1nc(C(=O)NCCCN3CCC(F)(F)CC3)c3cnc(-c4cnn5cccnc45)cc31)OCCN2` [Example 14, N-(3-(4,4-difluoropiperidin-1-yl)propyl)-1-(6-methoxy-3,4-dihydro-2H-benzo[b][1,4]oxazin-7-yl)-6-(pyrazolo[1,5-a]pyrimidin-3-yl)-1H-pyrazolo[4,3-c]pyridine-3-carboxamide] showed an IC50 of 5.01 to 50.1 nM. Molecule `COc1cc2c(cc1-n1nc(NCCN3CCN(C)CC3)c3cnc(-c4cnn5cccnc45)cc31)SCC(=O)N2` [Example 37] had a 50% inhibitory concentration (IC50) of 5.01 to 50.1 nM. `Cc1nn(-c2cc3c(cc2OC(F)F)NCCO3)c2cc(-c3cnn4cccnc34)ncc12` [Example 1, 6-(difluoromethoxy)-7-(3-methyl-6-(pyrazolo[1,5-a]pyrimidin-3-yl)-1H-pyrazolo[4,3-c]pyridin-1-yl)-3,4-dihydro-2H-benzo[b][1,4]oxazine] gave an IC50 of 5.01 to 50.1 nM. In the case of `COc1cc2c(cc1-n1nc(C)c3cnc(-c4cnn5cccnc45)cc31)OC(F)(F)C(=O)N2` [Example 11, 2,2-difluoro-6-methoxy-7-(3-methyl-6-(pyrazolo[1,5-a]pyrimidin-3-yl)-1H-pyrazolo[4,3-c]pyridin-1-yl)-2H-benzo[b][1,4]oxazin-3(4H)-one] it was 5.01 to 50.1 nM. In the case of `COc1cc2c(cc1-n1nc(C(=O)NCCN3CCC4(CCOC4=O)CC3)c3cnc(-c4cnn5cccnc45)cc31)OCCN2` [Example 52, 1-(6-methoxy-3,4-dihydro-2H-benzo[b][1,4]oxazin-7-yl)-N-(2-(1-oxo-2-oxa-8-azaspiro[4.5]decan-8-yl)ethyl)-6-(pyrazolo[1,5-a]pyrimidin-3-yl)-1H-pyrazolo[4,3-c]pyridine-3-carboxamide] it was below 5.01 nM.
